The text below walks through data of US20220409631A1, “METHODS OF INDUCING OR ENHANCING FARNESOID X RECEPTOR (FXR)-MEDIATED TRANSCRIPTIONAL RESPONSE” (YALE UNIVERSITY, priority 2019, published 2022).

What all share (assay type): cell-based
In series [1] the test system is other hormone receptor signaling pathways. The series can be described thus: Selectivity for different hormone receptor signaling pathways (panel).
The next series relates to BACS. In words: RT-qPCR for FXR target genes in HepG2 cells: BACS. Here is the method:
(§1) Real Time Quantitative PCR (RT-qPCR)—Real Time Quantitative PCR (RT-qPCR) for FXR target genes: RNA was extracted from NZZ compounds treated cells using the Roche High Pure RNA isolation kit. cDNA was then generated from RNA samples using Bio-rad iScript Advanced cDNA synthesis kit for RT-qPCR. qPCR was performed using primers as shown in the Table 1 and iTaq™ Universal SYBR® Green Supermix in CFX PCR machine (Bio-rad). Relative mRNA expression was calculated based on the change of the threshold cycle relative to the internal control, (3-actin, using a standard curve generated by purified PCR products.

The next series concerns the target ER-β (Homo sapiens, UniProt Q92731). In words: Hormone receptor signaling pathway selectivity: ER-β. The settings on record: with E2; read-out: ER-β with ligand E2 (inhibition IC50).
In a further series the test system is CYP7A1. In words: RT-qPCR for FXR target genes in HepG2 cells: CYP7A1. The following applies: concentration of about 35 μM to 45. The method, then:
as §1

The subject of another series is PPARa. The series can be described thus: RT-qPCR for FXR target genes in HepG2 cells: PPARa. The following applies: concentration of about 75 μM to 85. Here is the method:
as §1

The target in a further series is T1, ER-α (Homo sapiens, UniProt P03372).
T1 sequence (P03372 1-595): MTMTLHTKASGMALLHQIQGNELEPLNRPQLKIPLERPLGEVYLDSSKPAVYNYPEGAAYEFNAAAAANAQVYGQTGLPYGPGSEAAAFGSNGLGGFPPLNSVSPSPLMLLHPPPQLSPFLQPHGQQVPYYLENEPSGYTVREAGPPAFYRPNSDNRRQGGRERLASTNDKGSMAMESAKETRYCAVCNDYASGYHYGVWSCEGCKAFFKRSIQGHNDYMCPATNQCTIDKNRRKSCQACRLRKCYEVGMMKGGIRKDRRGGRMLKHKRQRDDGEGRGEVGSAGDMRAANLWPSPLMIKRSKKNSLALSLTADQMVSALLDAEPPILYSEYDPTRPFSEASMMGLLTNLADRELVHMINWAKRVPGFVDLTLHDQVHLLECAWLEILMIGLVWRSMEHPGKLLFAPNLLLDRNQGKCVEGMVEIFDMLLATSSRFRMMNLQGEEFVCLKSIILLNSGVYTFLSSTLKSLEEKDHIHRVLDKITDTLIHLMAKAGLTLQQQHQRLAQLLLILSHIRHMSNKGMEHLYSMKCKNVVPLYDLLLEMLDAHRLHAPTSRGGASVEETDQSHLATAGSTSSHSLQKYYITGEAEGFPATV
In words: Hormone receptor signaling pathway selectivity: ER-α mediated transcriptional response. The settings on record: with E2; read-out: ER-α with ligand E2 (inhibition IC50).

In the next series the target is T2, AR (Homo sapiens, UniProt P10275).
T2 sequence (P10275 1-920): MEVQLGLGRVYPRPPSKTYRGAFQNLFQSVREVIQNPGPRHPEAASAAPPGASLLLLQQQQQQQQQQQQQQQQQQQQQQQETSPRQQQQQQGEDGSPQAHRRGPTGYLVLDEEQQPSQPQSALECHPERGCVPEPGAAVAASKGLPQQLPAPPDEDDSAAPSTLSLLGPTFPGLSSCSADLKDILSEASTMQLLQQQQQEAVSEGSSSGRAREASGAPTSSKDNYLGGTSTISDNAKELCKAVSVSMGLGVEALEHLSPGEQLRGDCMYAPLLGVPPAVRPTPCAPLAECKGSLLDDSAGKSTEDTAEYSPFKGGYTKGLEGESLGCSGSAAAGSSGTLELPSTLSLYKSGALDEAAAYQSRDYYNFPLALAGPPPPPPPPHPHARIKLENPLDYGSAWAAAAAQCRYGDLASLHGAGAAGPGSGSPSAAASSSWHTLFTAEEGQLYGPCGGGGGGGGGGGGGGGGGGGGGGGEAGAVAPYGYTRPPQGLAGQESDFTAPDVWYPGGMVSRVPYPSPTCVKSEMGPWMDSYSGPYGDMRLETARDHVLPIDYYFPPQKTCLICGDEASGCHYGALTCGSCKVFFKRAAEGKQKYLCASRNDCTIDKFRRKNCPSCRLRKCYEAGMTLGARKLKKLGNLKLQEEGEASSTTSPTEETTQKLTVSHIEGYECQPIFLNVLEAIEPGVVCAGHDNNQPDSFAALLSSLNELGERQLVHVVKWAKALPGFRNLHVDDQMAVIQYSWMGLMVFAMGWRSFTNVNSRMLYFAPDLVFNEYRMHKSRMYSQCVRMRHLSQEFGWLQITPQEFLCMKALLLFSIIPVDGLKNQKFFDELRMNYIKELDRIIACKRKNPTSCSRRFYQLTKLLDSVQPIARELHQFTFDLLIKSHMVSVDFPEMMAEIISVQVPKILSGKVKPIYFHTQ
The series can be described thus: Hormone receptor signaling pathway selectivity: AR. The following applies: with DHT; read-out: AR with ligand DHT (inhibition IC50).

Another series concerns the target T3, VDR (Homo sapiens, UniProt P11473).
T3 sequence (P11473 1-427): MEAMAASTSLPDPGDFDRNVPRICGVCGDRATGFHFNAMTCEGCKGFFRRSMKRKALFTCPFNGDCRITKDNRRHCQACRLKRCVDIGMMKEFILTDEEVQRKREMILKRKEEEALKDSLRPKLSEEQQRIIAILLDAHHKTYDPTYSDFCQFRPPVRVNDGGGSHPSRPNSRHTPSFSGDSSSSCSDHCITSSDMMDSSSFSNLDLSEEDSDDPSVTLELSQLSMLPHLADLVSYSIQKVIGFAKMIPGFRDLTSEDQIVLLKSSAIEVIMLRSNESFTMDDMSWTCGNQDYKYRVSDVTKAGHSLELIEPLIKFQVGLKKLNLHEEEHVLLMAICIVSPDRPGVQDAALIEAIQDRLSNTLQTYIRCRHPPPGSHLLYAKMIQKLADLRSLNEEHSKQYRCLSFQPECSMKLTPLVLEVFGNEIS
In words: Hormone receptor signaling pathway selectivity: VDRE (VDR). The following applies: with VD3; read-out: VDRE with ligand VD3 (inhibition IC50).

The target of another series is T4, FXR (Homo sapiens, UniProt Q96RI1).
T4 construct: HepG2 cells were stably transfected with either FXR reporter DNA; endogenous in cells; host or cells: HepG2 cells stably transfected with a 3x FXR response element PGL4.2 luciferase reporter
T4 sequence (Q96RI1 1-486): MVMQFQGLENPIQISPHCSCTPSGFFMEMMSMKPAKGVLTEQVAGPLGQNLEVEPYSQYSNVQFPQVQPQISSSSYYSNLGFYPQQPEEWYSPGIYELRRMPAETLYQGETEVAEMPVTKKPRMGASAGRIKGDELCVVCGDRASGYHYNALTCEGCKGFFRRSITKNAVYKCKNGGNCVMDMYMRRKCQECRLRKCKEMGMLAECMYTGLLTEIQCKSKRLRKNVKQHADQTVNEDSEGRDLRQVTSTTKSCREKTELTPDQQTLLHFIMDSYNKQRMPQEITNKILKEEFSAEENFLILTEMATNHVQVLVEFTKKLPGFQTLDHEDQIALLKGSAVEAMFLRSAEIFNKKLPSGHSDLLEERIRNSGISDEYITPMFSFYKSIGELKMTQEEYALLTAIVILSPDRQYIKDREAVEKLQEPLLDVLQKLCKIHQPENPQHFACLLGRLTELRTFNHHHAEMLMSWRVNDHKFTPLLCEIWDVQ
The series can be described thus: FXR luciferase reporter assay in HepG2 reporter cells. Here is the method:
FXR luciferase reporter cells—FXR luciferase reporter cells—HepG2 cancer cells were used in the screening study. HepG2 cells were stably transfected with either FXR reporter DNA in which 3 repeated response element ([…])(SEQ ID NO:2) was inserted in-PGL4.2 luciferase reporter plasmid or LXR reporter DNA in which 3 repeated response element ([…])(SEQ ID NO:3) was inserted in PGL4.2 luciferase reporter plasmid. Reporter cells were selected by puromycin (1 ug/mL) in RPMI-1640 medium with 10% FBS.
Luciferase assay—Reporter cells were treated with compounds at 0, 10, 20, 40, and […] for 24h in a 37° C.-CO2 incubator with or without chenodeoxycholic acid (CDCA) for FXR reporter cells or GW3965 for LXR reporter cells. Cells were lysed using luciferase lysis buffer after which luciferase buffer with luciferin was added to generate luminescence. Luminescence was recorded using a luminescence microplate reader.

Entries after “also recorded” stand apart in the source; their conditions may differ. Bounds are passed on as bounds.

Sequence of ER-β (Q92731 whole entry, species assumed): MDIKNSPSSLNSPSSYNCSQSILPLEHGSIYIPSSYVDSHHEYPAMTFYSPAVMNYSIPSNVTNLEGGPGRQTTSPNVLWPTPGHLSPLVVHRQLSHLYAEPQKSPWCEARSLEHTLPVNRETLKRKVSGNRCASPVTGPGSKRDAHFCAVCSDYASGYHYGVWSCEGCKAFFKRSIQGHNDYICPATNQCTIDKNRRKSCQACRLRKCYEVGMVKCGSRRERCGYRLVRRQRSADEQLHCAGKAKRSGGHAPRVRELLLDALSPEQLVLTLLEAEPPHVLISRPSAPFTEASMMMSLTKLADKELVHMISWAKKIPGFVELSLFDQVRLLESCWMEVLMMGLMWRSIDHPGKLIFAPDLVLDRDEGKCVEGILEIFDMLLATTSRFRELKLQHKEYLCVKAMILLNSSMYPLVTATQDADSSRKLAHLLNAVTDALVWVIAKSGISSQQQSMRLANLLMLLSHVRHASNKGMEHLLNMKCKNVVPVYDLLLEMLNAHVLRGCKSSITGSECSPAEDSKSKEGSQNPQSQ

Turning to `C=C(CC[C@@H](C)[C@H]1CC[C@H]2C3=C(C(=O)[C@H](O)[C@]12C)[C@@]1(C)CC[C@@H](O)[C@@H](C)[C@@H]1CC3=O)[C@@H](C)C(=O)O` [compound (I)], the “impact on other hormone receptor signaling pathways” value in [1] is reported as “no impact”. Besides, the “BACS mRNA expression, fold lower than the CDCA induced BACS expression” value with BACS is listed as “about 2 fold”. Further, the IC50 at ER-β, on ER-α, on AR and on VDR was greater than 80 µM throughout. Further, in the series with CYP7A1, the “inhibition of CYP7A1, stronger than by compound (II) or by CDCA” value is reported as “about 40%”. The “PPARa mRNA expression, fold higher than that induced by compound (II)” value in the series on PPARa is given as “about 2 fold”. In addition, the “induction of FXR activity / FXR mediated transcriptional response” value on FXR (HepG2 FXR-luciferase reporter cells) is on record as “act as agonists; also recorded: induce/enhance FXR activity”. Moreover, at FXR (no ligand added, read-out: FXR (stimulation EC50)), the EC50 was 25 µM.
